IC50 and Ki data for 19 molecules are collected here from ChEMBL document CHEMBL1909046, “DrugMatrix in vitro pharmacology data”.

A word on the IC50: it is the midpoint of a concentration-inhibition curve. As a reminder, the Ki is the dissociation constant of the complex between target and ligand, obtained from inhibition or displacement.

Experiment [1] concerns the target Sodium-dependent noradrenaline transporter (Homo sapiens, UniProt P23975). The experiment in a line: DRUGMATRIX: Norepinephrine Transporter radioligand binding (ligand: [125I] RTI-55). The class given is cell membranes, MDCK, Membrane. The conditions noted are these: Not Active = under 50% inhibition at 10 µM.
Experiment [2] deals with Delta-type opioid receptor (Homo sapiens, UniProt P41143). The class given is cell membranes, Membrane. The conditions noted are these: hek293.
Experiment [3] in a line: DRUGMATRIX: GABAA, Muscimol, Central radioligand binding (ligand: [3H] Muscimol). The class given is cell membranes, Rattus norvegicus, Wistar, Brain, Membrane. The conditions noted are these: Not Active = under 50% inhibition at 10 µM.
Experiment [4] deals with T1, Neuropeptide Y receptor type 1 (Homo sapiens, UniProt P25929).
T1 sequence (P25929 whole entry): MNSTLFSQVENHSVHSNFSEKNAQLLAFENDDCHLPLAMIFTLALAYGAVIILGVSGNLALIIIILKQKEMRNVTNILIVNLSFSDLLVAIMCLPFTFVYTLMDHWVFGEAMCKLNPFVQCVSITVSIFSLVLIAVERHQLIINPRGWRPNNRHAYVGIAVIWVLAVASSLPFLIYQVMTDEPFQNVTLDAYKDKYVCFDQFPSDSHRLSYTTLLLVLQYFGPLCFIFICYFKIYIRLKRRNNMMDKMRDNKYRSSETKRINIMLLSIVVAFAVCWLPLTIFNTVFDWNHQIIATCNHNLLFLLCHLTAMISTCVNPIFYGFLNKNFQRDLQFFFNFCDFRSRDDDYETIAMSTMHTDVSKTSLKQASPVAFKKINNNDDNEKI
The class given is cell membranes, Membrane. The conditions noted are these: sk-n-mc.

In experiment [5] the target is Beta-3 adrenergic receptor (Homo sapiens, UniProt P13945). Kind of experiment: DRUGMATRIX: Adrenergic beta3 radioligand binding (ligand: [125I] Cyanopindolol). The format is cell membranes, HEK293, Membrane. The conditions noted are these: hek293; Not Active = under 50% inhibition at 10 µM.
Experiment [6] in a line: DRUGMATRIX: Serotonin (5-Hydroxytryptamine) 5-HT3 radioligand binding (ligand: [3H] GR-65630). The class given is cell membranes, Membrane. The conditions noted are these: hek293; Not Active = under 50% inhibition at 10 µM.
Experiment [7] has as its target Adenosine receptor A2a (Homo sapiens, UniProt P29274). Kind of experiment: DRUGMATRIX: Adenosine A2A radioligand binding (ligand: […]). The format is cell membranes, HEK293, Membrane. The conditions noted are these: hek293; Not Active = under 50% inhibition at 10 µM.

Adenosine receptor A2a, sequence (P29274 whole entry): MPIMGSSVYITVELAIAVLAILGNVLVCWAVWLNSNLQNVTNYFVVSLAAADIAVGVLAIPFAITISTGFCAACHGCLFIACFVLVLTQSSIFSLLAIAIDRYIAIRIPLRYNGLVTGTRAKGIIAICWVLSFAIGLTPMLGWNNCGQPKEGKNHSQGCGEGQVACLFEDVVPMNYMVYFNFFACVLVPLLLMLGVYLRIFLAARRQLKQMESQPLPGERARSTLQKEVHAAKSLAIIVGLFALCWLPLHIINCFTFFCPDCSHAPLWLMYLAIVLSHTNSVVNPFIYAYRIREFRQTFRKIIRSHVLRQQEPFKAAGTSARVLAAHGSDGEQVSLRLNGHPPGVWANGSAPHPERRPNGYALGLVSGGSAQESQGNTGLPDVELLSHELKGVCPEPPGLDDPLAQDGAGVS
Delta-type opioid receptor, sequence (P41143 whole entry): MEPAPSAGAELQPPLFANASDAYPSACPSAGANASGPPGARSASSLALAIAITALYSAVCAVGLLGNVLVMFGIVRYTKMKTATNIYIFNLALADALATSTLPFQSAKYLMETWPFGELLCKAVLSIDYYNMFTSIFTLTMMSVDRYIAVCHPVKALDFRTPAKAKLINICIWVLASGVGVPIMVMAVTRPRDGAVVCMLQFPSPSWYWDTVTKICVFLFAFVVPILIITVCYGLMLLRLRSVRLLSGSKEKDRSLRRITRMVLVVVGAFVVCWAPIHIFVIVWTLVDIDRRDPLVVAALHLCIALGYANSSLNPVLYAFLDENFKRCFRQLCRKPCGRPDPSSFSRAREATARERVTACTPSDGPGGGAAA
Sodium-dependent noradrenaline transporter, sequence (P23975 whole entry): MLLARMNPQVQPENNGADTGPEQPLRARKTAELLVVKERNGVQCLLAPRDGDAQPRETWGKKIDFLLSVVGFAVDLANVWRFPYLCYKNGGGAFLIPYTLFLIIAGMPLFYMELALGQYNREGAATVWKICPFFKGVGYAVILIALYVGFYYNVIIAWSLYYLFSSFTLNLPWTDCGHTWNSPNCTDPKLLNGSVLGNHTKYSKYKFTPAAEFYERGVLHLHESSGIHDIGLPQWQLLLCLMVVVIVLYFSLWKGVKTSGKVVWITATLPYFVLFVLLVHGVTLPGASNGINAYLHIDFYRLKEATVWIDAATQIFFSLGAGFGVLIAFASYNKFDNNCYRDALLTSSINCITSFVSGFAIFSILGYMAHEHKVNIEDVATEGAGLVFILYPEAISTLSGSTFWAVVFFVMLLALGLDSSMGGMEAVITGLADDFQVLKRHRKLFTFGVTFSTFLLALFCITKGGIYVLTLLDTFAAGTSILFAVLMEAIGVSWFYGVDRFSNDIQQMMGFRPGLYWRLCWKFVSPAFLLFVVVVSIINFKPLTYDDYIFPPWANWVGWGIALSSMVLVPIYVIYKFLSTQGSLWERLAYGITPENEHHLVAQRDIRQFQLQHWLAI
Beta-3 adrenergic receptor, sequence (P13945 whole entry): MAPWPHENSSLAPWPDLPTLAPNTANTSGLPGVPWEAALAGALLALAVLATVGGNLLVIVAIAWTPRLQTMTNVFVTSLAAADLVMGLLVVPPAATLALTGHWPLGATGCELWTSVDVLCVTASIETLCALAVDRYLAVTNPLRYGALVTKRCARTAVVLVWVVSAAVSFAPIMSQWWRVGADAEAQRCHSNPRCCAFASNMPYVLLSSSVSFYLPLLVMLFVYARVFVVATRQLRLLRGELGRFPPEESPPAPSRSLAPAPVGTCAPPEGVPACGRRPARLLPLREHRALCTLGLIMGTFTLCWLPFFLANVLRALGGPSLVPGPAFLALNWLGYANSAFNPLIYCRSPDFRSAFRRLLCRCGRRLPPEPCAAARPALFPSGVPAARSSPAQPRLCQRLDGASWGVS

Take `CO[C@H]1/C=C/O[C@@]2(C)Oc3c(C)c(O)c4c(O)c(c(/C=N/N5CCN(C6CCCC6)CC5)c(O)c4c3C2=O)NC(=O)/C(C)=C\C=C\[C@H](C)[C@H](O)[C@@H](C)[C@@H](O)[C@@H](C)[C@H](OC(C)=O)[C@@H]1C` [RIFAPENTINE]: the IC50 result in experiment [1] (mdck), in experiment [2], in experiment [3], in experiment [4], in experiment [5] and in experiment [6] was “Not Active” each time. Besides, the IC50 entry in experiment [7] was “Not Active”. Further, the Ki entry in experiment [3] and in experiment [6] was “Not Active” each time.

On to `CCCCOc1cc(CC2CNC(=O)N2)ccc1OC` (configuration not stated) [RO-201724], for which the IC50 entry in experiment [1] (mdck), in experiment [2], in experiment [3], in experiment [4], in experiment [5] and in experiment [6] was “Not Active” throughout. The IC50 result in experiment [7] is “Not Active”. Further, the Ki entry in experiment [3] and in experiment [6] was “Not Active” in each case.

Turning to `CC[C@@H](C(=O)[C@@H](C)[C@@H](O)[C@H](C)[C@@H]1O[C@@H]([C@@H](CC)C(=O)O)CC[C@@H]1C)[C@H]1O[C@]2(C=C[C@@H](O)[C@]3(CC[C@@](C)([C@H]4CC[C@](O)(CC)[C@H](C)O4)O3)O2)[C@H](C)C[C@@H]1C` [SALINOMYCIN], the IC50 result in experiment [1] (mdck), in experiment [2], in experiment [3], in experiment [4], in experiment [5] and in experiment [6] was “Not Active” each time. Moreover, the half-inhibitory concentration (IC50) entry in experiment [7] is recorded as “Not Active”. Also, the Ki entry in experiment [3] and in experiment [6] was “Not Active” each time.

`O=C(Oc1ccccc1C(=O)O)c1ccccc1O` [SALSALATE]: the IC50 result in experiment [1] (mdck), in experiment [2], in experiment [3], in experiment [4], in experiment [5] and in experiment [6] was “Not Active” each time. In experiment [7], the half-maximal inhibitory concentration (IC50) result is “Not Active”. The Ki entry in experiment [3] and in experiment [6] was “Not Active” throughout.

In the case of `O=C(O)c1cn(-c2ccc(F)cc2)c2cc(N3CCNCC3)c(F)cc2c1=O` [SARAFLOXACIN], the IC50 entry in experiment [1] (mdck), in experiment [2], in experiment [3], in experiment [4], in experiment [5] and in experiment [6] was “Not Active” each time. Further, in experiment [7], the IC50 result is “Not Active”. Moreover, the Ki result in experiment [3] and in experiment [6] was “Not Active” in each case.

With `CC(C)NCC(O)c1ccc(NS(C)(=O)=O)cc1` (configuration not stated) [SOTALOL], the IC50 entry in experiment [1] (mdck), in experiment [2], in experiment [3], in experiment [4], in experiment [5] and in experiment [6] was “Not Active” in each case. Moreover, in experiment [7], the IC50 result is on record as “Not Active”. Moreover, the Ki result in experiment [3] and in experiment [6] was “Not Active” in each case.

`O.O.O.O.O.O.[Cl-].[Cl-].[Sr+2]` [STRONTIUM CHLORIDE HEXAHYDRATE]: the IC50 entry in experiment [1] (mdck), in experiment [2], in experiment [3], in experiment [4], in experiment [5] and in experiment [6] was “Not Active” each time. Also, the IC50 result in experiment [7] is “Not Active”. The Ki result in experiment [3] and in experiment [6] was “Not Active” each time.

Take `O=C1C(CC[S+]([O-])c2ccccc2)C(=O)N(c2ccccc2)N1c1ccccc1` (configuration not stated) [SULFINPYRAZONE]: the concentration for half-maximal inhibition (IC50) entry in experiment [1] (mdck), in experiment [2], in experiment [3], in experiment [4], in experiment [5] and in experiment [6] was “Not Active” in each case. The IC50 entry in experiment [7] is “Not Active”. Further, the Ki result in experiment [3] and in experiment [6] was “Not Active” in each case.

Take `NC(=O)N1C(=O)/C(=C(\O)c2cccs2)c2cc(Cl)ccc21` [TENIDAP]: the IC50 result in experiment [1] (mdck), in experiment [2], in experiment [3], in experiment [4], in experiment [5] and in experiment [6] was “Not Active” throughout. In addition, the IC50 entry in experiment [7] was “Not Active”. Besides, the Ki entry in experiment [3] and in experiment [6] was “Not Active” throughout.

As for `COc1cc2nc(N3CCN(C(=O)C4CCCO4)CC3)nc(N)c2cc1OC` (configuration not stated) [TERAZOSIN], the IC50 result in experiment [1] (mdck), in experiment [2], in experiment [3], in experiment [4], in experiment [5] and in experiment [6] was “Not Active” throughout. Besides, the IC50 entry in experiment [7] is “Not Active”. The Ki entry in experiment [3] and in experiment [6] was “Not Active” in each case.

As for `CN(C/C=C/C#CC(C)(C)C)Cc1cccc2ccccc12` [TERBINAFINE], the IC50 was 4.13 µM in experiment [1] (read-out: IC50); “Not Active” in experiment [2]; “Not Active” in experiment [3]; “Not Active” in experiment [4]; “Not Active” in experiment [5]; “Not Active” in experiment [6]. Moreover, the IC50 entry in experiment [7] is given as “Not Active”. Besides, the Ki in experiment [1] (read-out: Ki) was 4.1 µM; in experiment [3], “Not Active”; in experiment [6] it was “Not Active”.

As for `CCCCNc1ccc(C(=O)OCCN(C)C)cc1` [TETRACAINE], the IC50 result in experiment [1] (mdck), in experiment [2], in experiment [3], in experiment [4], in experiment [5] and in experiment [6] was “Not Active” throughout. For the same molecule, the IC50 result in experiment [7] is “Not Active”. In addition, the Ki result in experiment [3] and in experiment [6] was “Not Active” each time.

Regarding `CS(=O)(=O)c1ccc([C@@H](O)[C@@H](CO)NC(=O)C(Cl)Cl)cc1` [THIAMPHENICOL], the IC50 result in experiment [1] (mdck), in experiment [2], in experiment [3], in experiment [4], in experiment [5] and in experiment [6] was “Not Active” in each case. Also, the IC50 entry in experiment [7] was “Not Active”. Moreover, the Ki result in experiment [3] and in experiment [6] was “Not Active” in each case.

In the case of `CCN(CC)CCNC(=O)c1cc(S(C)(=O)=O)ccc1OC` [TIAPRIDE], the IC50 result in experiment [1] (mdck), in experiment [2], in experiment [3], in experiment [4], in experiment [5] and in experiment [6] was “Not Active” throughout. Further, the IC50 entry in experiment [7] is reported as “Not Active”. The Ki entry in experiment [3] and in experiment [6] was “Not Active” each time.

`Clc1ccccc1CN1CCc2sccc2C1` [TICLOPIDINE]: the IC50 result in experiment [1] (mdck), in experiment [2], in experiment [3], in experiment [4], in experiment [5] and in experiment [6] was “Not Active” throughout. Also, in experiment [7], the IC50 result is on record as “Not Active”. For the same molecule, the Ki result in experiment [3] and in experiment [6] was “Not Active” each time.

Take `NC1CCN(c2nc3c(cc2F)c(=O)c(C(=O)O)cn3-c2ccc(F)cc2F)C1` (configuration not stated) [TOSUFLOXACIN]: the IC50 entry in experiment [1] (mdck), in experiment [2], in experiment [3], in experiment [4], in experiment [5] and in experiment [6] was “Not Active” each time. The IC50 result in experiment [7] is “Not Active”. Besides, the Ki result in experiment [3] and in experiment [6] was “Not Active” throughout.

For `O=C(Nc1ccc(Br)cc1)c1cc(Br)cc(Br)c1O` [TRIBROMSALAN], the IC50 entry in experiment [1] (mdck), in experiment [2], in experiment [3], in experiment [4], in experiment [5] and in experiment [6] was “Not Active” each time. In addition, in experiment [7], the half-inhibitory concentration (IC50) result is reported as “Not Active”. Moreover, the Ki result in experiment [3] and in experiment [6] was “Not Active” throughout.

Turning to `CC(c1cc2ccccc2s1)N(O)C(N)=O` (configuration not stated) [ZILEUTON], the IC50 entry in experiment [1] (mdck), in experiment [2], in experiment [3], in experiment [4], in experiment [5] and in experiment [6] was “Not Active” each time. Besides, the IC50 entry in experiment [7] is reported as “Not Active”. In addition, the Ki result in experiment [3] and in experiment [6] was “Not Active” each time.

MANGANESE CHLORIDE ANHYDROUS: the IC50 entry in experiment [1] (mdck), in experiment [2], in experiment [3], in experiment [4], in experiment [5] and in experiment [6] was “Not Active” throughout. Besides, in experiment [7], the IC50 entry was “Not Active”. Moreover, the Ki result in experiment [1] (mdck), in experiment [2], in experiment [3], in experiment [4], in experiment [5] and in experiment [6] was “Not Active” in each case. The Ki entry in experiment [7] is recorded as “Not Active”.
